Measurements published in US11304929B2, “Tosylacetate based compounds and derivatives thereof as PHGDH inhibitors” (priority 2017, dated 2022).
Where two headings read alike, the source gives them in different places.

Target: PHGDH (Homo sapiens (Human), UniProt O43175)
Assay: 3-Phosphoglycerate Dehydrogenase (PHGDH) Fluorescence Intensity Assay, run at two NAD/3-PG ratios: PHGDH_HIGH_NAD/3-PG (250 μM NAD/500 μM 3-PG) and PHGDH_500_NAD/3-PG (500 μM NAD/500 μM 3-PG)
Assay type: biochemical
[1] = 500 μM NAD/500 μM 3-PG, read-out: IC50 (PHGDH_500_NAD/3-PG)
[2] = 250 μM NAD/500 μM 3-PG, read-out: IC50 (PHGDH_HIGH_NAD/3-PG)

PHGDH, sequence (O43175 2-533 limits assumed): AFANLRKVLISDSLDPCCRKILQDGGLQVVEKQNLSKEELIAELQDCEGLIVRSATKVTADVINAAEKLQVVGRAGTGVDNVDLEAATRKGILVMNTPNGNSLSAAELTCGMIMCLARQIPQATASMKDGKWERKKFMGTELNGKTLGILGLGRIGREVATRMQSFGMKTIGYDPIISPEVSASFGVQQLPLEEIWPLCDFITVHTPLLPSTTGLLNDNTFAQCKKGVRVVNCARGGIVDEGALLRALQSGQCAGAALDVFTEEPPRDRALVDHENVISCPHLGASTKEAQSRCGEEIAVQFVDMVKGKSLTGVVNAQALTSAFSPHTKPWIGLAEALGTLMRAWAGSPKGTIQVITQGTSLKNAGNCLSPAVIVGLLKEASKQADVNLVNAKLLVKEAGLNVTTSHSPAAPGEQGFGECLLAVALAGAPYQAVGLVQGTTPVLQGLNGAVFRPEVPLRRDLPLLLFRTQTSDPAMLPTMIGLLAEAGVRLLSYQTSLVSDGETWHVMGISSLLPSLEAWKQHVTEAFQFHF

Row | Compound | IC50 [1] [nM] | IC50 [2] [nM]
1 | CC(=O)N1CCC(C(=O)O)(S(=O)(=O)c2ccc([C@@H](C)NC(=O)c3cc4c(Cl)c(Cl)c(C)cc4n3C)cc2)CC1 [Example 07-016, 1-acetyl-4-{4-[(1R)-1-[(4,5-dichloro-1,6-dimethyl-1H-indol-2-yl)formamido]ethyl]benzenesulfonyl}piperidine-4-carboxylic acid] | 21 | 
2 | CC(C)OC(=O)C(C)S(=O)(=O)c1ccc([C@@H](C)NC(=O)c2cc(-c3ccccc3)nn2C)cc1 (stereo partly drawn) [Example 06-004, propan-2-yl 2-{4-[(1R)-1-[(1-methyl-3-phenyl-1H-pyrazol-5-yl)formamido]ethyl]benzenesulfonyl}propanoate] |  | 78200
3 | Cc1cc(Cl)c2cc(C(=O)N[C@H](CO)c3ccc(S(=O)(=O)CC(=O)O[C@H]4CCOC4)cc3)n(C)c2c1 [Example 09-030, (3S)-oxolan-3-yl 2-{4-[(1S)-1-[(4-chloro-1,6-dimethyl-1H-indol-2-yl)formamido]-2-hydroxyethyl]benzenesulfonyl}acetate] |  | 85
4 | COC(=O)C[S@@+]([O-])c1ccc([C@@H](CO)NC(=O)c2cc3c(Cl)cc(C)cc3n2C)cc1 [Example 11-010, methyl 2-[(R)-4-[(1S)-1-[(4-chloro-1,6-dimethyl-1H-indol-2-yl)formamido]-2-hydroxyethyl]benzenesulfinyl]acetate] |  | 447
5 | Cc1cc(Cl)c2cc(C(=O)N[C@H](CO)c3ccc(S(=O)(=O)CC(=O)OCC4COC4)cc3)n(C)c2c1 [Example 09-035, oxetan-3-ylmethyl 2-{4-[(1S)-1-[(4-chloro-1,6-dimethyl-1H-indol-2-yl)formamido]-2-hydroxyethyl]benzenesulfonyl}acetate] |  | 54
6 | CC(NC(=O)c1cc2c(Cl)cc(I)cc2n1C)c1ccc(S(=O)(=O)CC(=O)O)cc1 (centres unmarked) [Example 03-008, 2-(4-{1-[(4-chloro-6-iodo-1-methyl-1H-indol-2-yl)formamido]ethyl}benzenesulfonyl)acetic acid] |  | 24
7 | CCCC(C(=O)OC)S(=O)(=O)c1ccc([C@@H](C)NC(=O)c2cc3c(Cl)cc(C)cc3n2C)cc1 (stereo partly drawn) [Example 05-015, methyl 2-{4-[(1R)-1-[(4-chloro-1,6-dimethyl-1H-indol-2-yl)formamido]ethyl]benzenesulfonyl}pentanoate] |  | 3470
8 | Cc1nc2c(cc(C(=O)N[C@H](C)c3ccc(S(=O)(=O)CC(=O)O)cc3)n2C)c(Cl)c1Cl [Example 03-010, 2-{4-[(1R)-1-({4,5-dichloro-1,6-dimethyl-1H-pyrrolo[2,3-b]pyridin-2-yl}formamido)ethyl]benzenesulfonyl}acetic acid] |  | 170
9 | Cc1cc2c(cc(C(=O)N[C@H](CO)c3ccc([S+]([O-])CC(=O)O)cc3)n2C)c(Cl)c1Cl (stereo partly drawn) [Example 12-003, 2-{4-[(1S)-1-[(4,5-dichloro-1,6-dimethyl-1H-indol-2-yl)formamido]-2-hydroxyethyl]benzenesulfinyl}acetic acid] | 5 | 3
10 | Cc1cc(Cl)c2cc(C(=O)N[C@H](C)c3ccc(S(=O)(=O)CC(=O)O)cc3)n(C)c2c1C [Example 03-003, 2-{4-[(1R)-1-[(4-chloro-1,6,7-trimethyl-1H-indol-2-yl)formamido]ethyl]benzenesulfonyl}acetic acid] | 22 | 13
11 | C[C@@H](NC(=O)c1cc(-c2ccc(F)cc2)nn1C)c1ccc(S(=O)(=O)C(C)(C)C(=O)O)cc1 [Example 08-001, 2-{4-[(1R)-1-{[3-(4-fluorophenyl)-1-methyl-1H-pyrazol-5-yl]formamido}ethyl]benzenesulfonyl}-2-methylpropanoic acid] |  | 161
12 | Cc1cc2c(cc(C(=O)N[C@H](C)c3ccc([S+]([O-])CC(=O)O)cc3)n2C)c(Cl)c1Cl (stereo partly drawn) [Example 12-008, 2-{4-[(1R)-1-[(4,5-dichloro-1,6-dimethyl-1H-indol-2-yl)formamido]ethyl]benzenesulfinyl}acetic acid] | 8 | 
13 | Cc1cc2c(cc(C(=O)N[C@H](CO)c3ccc([S@+]([O-])CC(=O)OC(C)C)cc3)n2C)c(F)c1F [Example 13-006, propan-2-yl 2-[(R)-4-[(1S)-1-[(4,5-difluoro-1,6-dimethyl-1H-indol-2-yl)formamido]-2-hydroxyethyl]benzenesulfinyl]acetate] | 2080 | 
14 | Cc1cc2c(cc(C(=O)N[C@H](CO)c3ccc(S(=O)(=O)CC(=O)OCC(C)(C)O)cc3)n2C)c(F)c1F [Example 09-043, 2-hydroxy-2-methylpropyl 2-{4-[(1S)-1-[(4,5-difluoro-1,6-dimethyl-1H-indol-2-yl)formamido]-2-hydroxyethyl]benzenesulfonyl}acetate] | 246 | 
15 | Cc1cc(Cl)c2cc(C(=O)N[C@H](C)c3ccc(S(=O)(=O)CC(=O)OCC(CO)CO)cc3)n(C)c2c1 [Example 09-027, 3-hydroxy-2-(hydroxymethyl)propyl 2-{4-[(1R)-1-[(4-chloro-1,6-dimethyl-1H-indol-2-yl)formamido]ethyl]benzenesulfonyl}acetate] |  | 160
16 | Cc1cc(Cl)c2cc(C(=O)N[C@H](CO)c3ccc(S(=O)(=O)CC(=O)OC4CCOCC4)cc3)n(C)c2c1 [Example 09-028, oxan-4-yl 2-{4-[(1S)-1-[(4-chloro-1,6-dimethyl-1H-indol-2-yl)formamido]-2-hydroxyethyl]benzenesulfonyl}acetate] |  | 230
17 | C[C@@H](NC(=O)c1cc2cc(Cl)ccc2n1C)c1ccc(S(=O)(=O)[C@@H](C)C(=O)O)cc1 [Example 07-006, (2S)-2-{4-[(1R)-1-[(5-chloro-1-methyl-1H-indol-2-yl)formamido]ethyl]benzenesulfonyl}propanoic acid] |  | 238
18 | Cc1cc2c(cc(C(=O)N[C@H](CO)c3ccc(S(=O)(=O)CC(=O)OC(C)C)cc3)n2C)c(F)c1F [Example 01-039, propan-2-yl 2-{4-[(1S)-1-[(4,5-difluoro-1,6-dimethyl-1H-indol-2-yl)formamido]-2-hydroxyethyl]benzenesulfonyl}acetate] |  | 1120
19 | Cc1cc2c(cc(C(=O)N[C@H](C)c3ccc(S(=O)(=O)CC(=O)O)cc3)n2C)c(Cl)c1F [Example 03-014, 2-{4-[(1R)-1-[(4-chloro-5-fluoro-1,6-dimethyl-1H-indol-2-yl)formamido]ethyl]benzenesulfonyl}acetic acid] | 7 | 5
20 | CC(C)OC(=O)CS(=O)(=O)c1ccc([C@@H](C)NC(=O)c2cc(-c3ccc(Cl)c(Cl)c3)nn2C)cc1 [Example 02-014, propan-2-yl 2-{4-[(1R)-1-{[3-(3,4-dichlorophenyl)-1-methyl-1H-pyrazol-5-yl]formamido}ethyl]benzenesulfonyl}acetate] |  | 73300
21 | Cn1nc(-c2ccc(F)cc2)cc1C(=O)N[C@H](CO)c1ccc(S(=O)(=O)CC(=O)O)cc1 [Example 04-004, 2-{4-[(1S)-1-{[3-(4-fluorophenyl)-1-methyl-1H-pyrazol-5-yl]formamido}-2-hydroxyethyl]benzenesulfonyl}acetic acid] | 299 | 174
22 | Cc1cc(Cl)c2cc(C(=O)N[C@H](C)c3ccc(S(=O)(=O)CC(=O)OCC4COC4)cc3)n(C)c2c1 [Example 09-017, oxetan-3-ylmethyl 2-{4-[(1R)-1-[(4-chloro-1,6-dimethyl-1H-indol-2-yl)formamido]ethyl]benzenesulfonyl}acetate] |  | 177
